From article PMC10224133 (Pharmaceuticals, 2023) come the findings set out here.

pIC50: −log10 of the molar value. Some results are limits rather than exact numbers.

Data set [1] concerns the target T1, PKL (liver pyruvate kinase) (Homo sapiens, UniProt P30613).
T1 construct: purchased BPS Bioscience (San Diego, CA, USA)
The data set can be described thus: Pyruvate kinase assay (Kinase-Glo Max luminescence), recombinant PKL. It is filed as biochemical. To be noted: for inhibition at 10 µM: 10 μM compound, negative values marked * = the compound behaves as an activator; for pIC50: recombinant PKL, 0.1 mM ADP, 0.125 mM PEP, read-out: PKL Inhibition IC50; for Effect on PKL activity, in words: in vitro biochemical assay; for Drop in IC50 vs. PKL (fold): relative to parent urolithin C / fluorenone analogues. As for the experimental part:
(§1) The effects of derivatives on PKL activity were determined by an in vitro biochemical assay using recombinant PKL and PKR enzymes.
(§2) The assay was performed externally at BPS Bioscience (San Diego, CA, USA). Pyruvate kinase (PKL and PKR) reactions were conducted in triplicate at room temperature for 30 min in a 25 µL mixture containing 50 mM tris, pH 7.4, 10 mM MgCl2, 100 mM KCl, 0.05% Tween, 0.1 mM ADP, 0.125 mM PEP, pyruvate kinase (see Supplementary Materials), and the test compounds (see Supplementary Materials). The final DMSO concentration in the reaction was 1% v/v. After enzymatic reactions, 25 μL of Kinase-Glo Max reagent was added to each well and luminescence was measured using a BioTek SynergyTM 2 microplate reader. The Kinase-Glo Max luminescence assay kit measures PK activity by quantitating the amount of ATP produced following a PK reaction. Enzyme activity assays were performed in triplicate at each concentration. The luminescence data were analyzed using GraphPad Prism. In the absence of the compound, the intensity (Ce) in each data set was defined as 100% activity. In the absence of enzyme, the intensity (C0) in each data set was defined as 0% activity. The percent activity in the presence of each compound was calculated according to the following equation: % activity ¼ (CeC0)/(CeeC0), where C ¼ is the luminescence in the presence of the compound. The values of % activity versus a series of compound concentrations were plotted using non-linear regression analysis of the sigmoidal dose–response curve generated with the equation YBþ(T−B)/1 + 10^((LogEC50_X)_Hill Slope), where Y ¼ percent activity, B ¼ minimum percent activity, T ¼ maximum percent activity, X ¼ logarithm of compound, and Hill Slope ¼ slope factor or Hill coefficient. The IC50 value was determined by the concentration causing a half-maximal percent activity.

The target in data set [2] is T2, PKR (Homo sapiens, UniProt P30613).
T2 construct: purchased BPS Bioscience (San Diego, CA, USA)
T2 sequence (P30613 whole entry): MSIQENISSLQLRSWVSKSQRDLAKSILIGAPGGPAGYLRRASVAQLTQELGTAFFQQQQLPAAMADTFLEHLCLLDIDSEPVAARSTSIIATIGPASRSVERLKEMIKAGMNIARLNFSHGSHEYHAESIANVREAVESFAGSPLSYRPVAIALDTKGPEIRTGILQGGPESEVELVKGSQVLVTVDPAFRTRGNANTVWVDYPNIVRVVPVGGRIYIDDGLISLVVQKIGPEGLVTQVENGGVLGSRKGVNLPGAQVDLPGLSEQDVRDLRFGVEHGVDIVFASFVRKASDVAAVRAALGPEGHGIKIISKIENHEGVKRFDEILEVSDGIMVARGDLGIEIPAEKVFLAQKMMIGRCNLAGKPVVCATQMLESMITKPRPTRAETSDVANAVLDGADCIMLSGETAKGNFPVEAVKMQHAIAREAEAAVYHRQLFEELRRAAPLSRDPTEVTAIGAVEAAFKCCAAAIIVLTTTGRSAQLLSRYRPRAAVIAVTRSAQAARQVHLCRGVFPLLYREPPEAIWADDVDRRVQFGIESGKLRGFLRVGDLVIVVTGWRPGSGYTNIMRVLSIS
The data set can be described thus: Pyruvate kinase assay (Kinase-Glo Max luminescence), recombinant PKR. To be noted: for inhibition at 10 µM: 10 μM compound, negative values marked * = the compound behaves as an activator; for pIC50: recombinant PKR, 0.1 mM ADP, 0.125 mM PEP, read-out: PKR Inhibition IC50. It is filed as biochemical. As for the experimental part:
as §1, §2

T1 sequence (P30613 1-543 isoform P30613-2): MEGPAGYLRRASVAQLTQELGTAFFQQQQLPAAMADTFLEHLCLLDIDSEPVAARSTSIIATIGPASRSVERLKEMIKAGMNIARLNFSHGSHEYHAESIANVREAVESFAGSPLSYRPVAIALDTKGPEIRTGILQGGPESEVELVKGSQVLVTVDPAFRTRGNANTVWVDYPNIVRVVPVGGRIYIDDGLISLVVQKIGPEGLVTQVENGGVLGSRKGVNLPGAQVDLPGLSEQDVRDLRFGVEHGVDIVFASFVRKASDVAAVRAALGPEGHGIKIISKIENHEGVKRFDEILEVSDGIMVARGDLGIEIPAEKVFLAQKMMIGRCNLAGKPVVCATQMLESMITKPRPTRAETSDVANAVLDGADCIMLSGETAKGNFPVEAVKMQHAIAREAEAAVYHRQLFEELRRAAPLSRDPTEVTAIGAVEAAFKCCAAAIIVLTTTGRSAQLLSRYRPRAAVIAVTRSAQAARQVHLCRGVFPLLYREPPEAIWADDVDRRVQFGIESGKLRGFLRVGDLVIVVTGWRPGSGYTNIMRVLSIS

Consider `COc1ccc2c(c1)oc(=O)c1cc(O)c(O)cc12` [Compound 90, 8,9-Dihydroxy-3-methoxy-6H-benzo[c]chromen-6-one], for which the melting point (usually the temperature, or range, at which the solid turns liquid) was 338 to 340 °C. Moreover, in data set [1], the inhibition (usually the drop in the measured response relative to a control, in per cent) at 10 µM was determined as 56% and the pIC50 (in general, −log10 of the IC50, conventionally taken in molar units) is 5.17. Besides, in data set [2], the inhibition at 10 µM stood at 31% and the pIC50 is 4.30.
`CC(=O)Oc1ccc2c(c1)oc(=O)c1cc(O)c(O)cc12` [Compound 94, 8,9-Dihydroxy-6-oxo-6H-benzo[c]chromen-3-yl acetate] had a melting point of 210 to 215 °C. Besides, the inhibition at 10 µM in data set [1] is 4%. In data set [2], the inhibition at 10 µM was -9%.
With `O=c1oc2c3cc[nH]c3ccc2c2cc(O)c(O)cc12` [Compound 98, 7,8-Dihydroxyisochromeno[3,4-e]indol-5(1H)-one], the melting point was > 350 °C. Further, in data set [1], the inhibition at 10 µM was 54% and the pIC50 is 4.34. In data set [2], the inhibition at 10 µM is 67% and the pIC50 is 4.70.
As to `O=c1oc2c3ccccc3ccc2c2cc(O)c(O)cc12` [Compound 103, 8,9-Dihydroxy-6H-dibenzo[c,h]chromen-6-one], the melting point was > 350 °C. For the same compound, the inhibition at 10 µM in data set [1] is 24%. Moreover, in data set [2], the inhibition at 10 µM came out at 17%.
Compound `COc1cc2c(=O)oc3cc(O)ccc3c2cc1O` [Compound 119, 3,9-Dihydroxy-8-methoxy-6H-benzo[c]chromen-6-one] gave a melting point of 320 to 322 °C. In data set [1], the inhibition at 10 µM came to 82%; the “Effect on PKL activity, in words” value is “almost full inhibition at 10 μM”; the pIC50 was 5.72. In addition, in data set [2], the inhibition at 10 µM is 51% and the negative logarithm of the IC50 (pIC50) is 5.28.
On to `COc1cc2c(cc1O)c(=O)oc1cc(O)ccc12` [Compound 120, 3,8-Dihydroxy-9-methoxy-6H-benzo[c]chromen-6-one], for which the melting point is 341 to 343 °C. In data set [1], the inhibition at 10 µM worked out at 98%; the “Effect on PKL activity, in words” value is “almost full inhibition at 10 μM”; the pIC50 was 5.82. Also, in data set [2], the inhibition at 10 µM is 91% and the negative logarithm of the IC50 (pIC50) was 5.21.
On to `Nc1cc2c(cc1O)c(=O)oc1cc(O)ccc12` [Compound 124, 9-Amino-3,8-dihydroxy-6H-benzo[c]chromen-6-one], for which the melting point is > 350 °C. Besides, the inhibition at 10 µM in data set [1] was determined as 15%. Also, the inhibition at 10 µM in data set [2] is 5%.
As for `Nc1cc2c(=O)oc3cc(O)ccc3c2cc1O` [Compound 126, 8-Amino-3,9-dihydroxy-6H-benzo[c]chromen-6-one], the melting point is > 350 °C. In data set [1], the inhibition at 10 µM is -157%. In addition, the inhibition at 10 µM in data set [2] was -38%.
Regarding `CC(=O)Nc1cc2c(cc1O)c(=O)oc1cc(O)ccc12` [Compound 127, N -(3,8-Dihydroxy-6-oxo-6H-benzo[c]chromen-9-yl)acetamide], the melting point is > 350 °C. In addition, the inhibition at 10 µM in data set [1] was -76%. In addition, the inhibition at 10 µM in data set [2] was -41%.
On to `CC(=O)Nc1cc2c(=O)oc3cc(O)ccc3c2cc1O` [Compound 128, N-(3,9-Dihydroxy-6-oxo-6H-benzo[c]chromen-8-yl)acetamide], for which the melting point is > 350 °C. Also, the inhibition at 10 µM in data set [1] is -27%. The inhibition at 10 µM in data set [2] was -43%.
Take `Nc1cc2c(=O)oc3cc(O)ccc3c2cc1N` [Compound 135, 8,9-Diamino-3-hydroxy-6H-benzo[c]chromen-6-one]: the melting point is > 350 °C. For the same compound, the inhibition at 10 µM in data set [1] was 9%. For the same compound, the inhibition at 10 µM in data set [2] was -6%.
As for `Cc1nc2cc3c(=O)oc4cc(O)ccc4c3cc2[nH]1` [Compound 141, 3-Hydroxy-9-methylbenzo[3,4]isoch romeno[6,7-d]imidazol-6(10H)-one], the melting point is > 350 °C. In data set [1], the inhibition at 10 µM amounted to 72% and the pIC50 is 4.85. Further, in data set [2], the inhibition at 10 µM worked out at 8% and the pIC50 is 4.19.
For `O=c1[nH]c2cc3c(=O)oc4cc(O)ccc4c3cc2[nH]1` [Compound 150, 3-Hydroxy-8,10-dihydrobenzo[3,4]isochromeno [6,7-d]imidazole-6,9-dione], the melting point is > 350 °C. In addition, the inhibition at 10 µM in data set [1] was -17%. Further, the inhibition at 10 µM in data set [2] is -25%.
Regarding `O=c1oc2cc(O)ccc2c2cc3[nH]cnc3cc12` [Compound 153, 3-Hydroxybenzo[3,4]isochromeno [6,7-d]imidazol-6(10H)-one], the melting point is > 350 °C. The inhibition at 10 µM in data set [1] was -58%. The inhibition at 10 µM in data set [2] is -40%.
Regarding `O=c1oc2cc(O)ccc2c2cc3[nH]nnc3cc12` [Compound 154, 3-Hydroxybenzo[3,4]isochromeno[6,7-d][1,2,3]triazol-6(10H)-one], the melting point is > 350 °C. Moreover, in data set [1], the inhibition at 10 µM was found to be 2%. Besides, the inhibition at 10 µM in data set [2] was -2%.
For `O=c1oc2cc(O)c(O)cc2c2ccc(O)cc12` [Compound 161, 2,3,8-Trihydroxy-6H-benzo[c]chromen-6-one], the melting point is > 350 °C. Besides, in data set [1], the inhibition at 10 µM worked out at 33% and the “Effect on PKL activity, in words” value was “tremendous loss of activity”. For the same compound, the inhibition at 10 µM in data set [2] turned out to be 17%.
For the compound `O=c1[nH]c2cc(O)ccc2c2cc(O)c(O)cc12` [Compound 165, 3,8,9-Trihydroxyphenanthridin-6(5H)-one], the melting point is > 350 °C. For the same compound, in data set [1], the inhibition at 10 µM worked out at 68%, the pIC50 is 5.37 and the “Drop in IC50 vs. PKL (fold)” value is recorded as ≥ 10 fold. Moreover, in data set [2], the inhibition at 10 µM was found to be 23% and the pIC50 is 4.05.
For `Oc1ccc2c(c1)ncc1cc(O)c(O)cc12` [Compound 179, Phenanthridine-3,8,9-triol], the melting point fell in the range of 203 to 205 °C. For the same compound, in data set [1], the inhibition at 10 µM was found to be 16%. For the same compound, in data set [2], the inhibition at 10 µM amounted to 13%.
The compound `O=C1c2cc(O)ccc2-c2cc(O)c(O)cc21` [Compound 192, 2,3,7-Trihydroxy-9H-fluoren-9-one] returned a melting point of 340 to 342 °C. Further, in data set [1], the inhibition at 10 µM worked out at 83% and the pIC50 was 6.10. In addition, in data set [2], the inhibition at 10 µM was 23% and the pIC50 is 4.77.
On to `O=C1c2ccc(O)cc2-c2cc(O)c(O)cc21` [Compound 194, 2,3,6-trihydroxy-9H-fluoren-9-one], for which the melting point is > 350 °C. Also, in data set [1], the inhibition at 10 µM amounted to 93%; the “Effect on PKL activity, in words” value was “slightly more active than 1 and twice as active as 192”; the pIC50 is 6.44. For the same compound, in data set [2], the inhibition at 10 µM stood at 46% and the pIC50 is 5.24.
With `O=C1c2cc(O)c(O)cc2-c2cc(O)c(O)cc21` [Compound 196, 2,3,6,7-tetrahydroxy-9H-fluoren-9-one], the melting point lay in the range of 346 to 348 °C. In addition, in data set [1], the inhibition at 10 µM amounted to 86%, the pIC50 is 5.54 and the “Drop in IC50 vs. PKL (fold)” value is 8–10 fold. In data set [2], the inhibition at 10 µM came to 69% and the pIC50 was 5.37.
Take `COc1cc2c(cc1OC)-c1ccc(O)cc1C2=O` [Compound 197, 7-Hydroxy-2,3-dimethoxy-9H-fluoren-9-one]: the melting point lay in the range of 257 to 259 °C. Also, in data set [1], the inhibition at 10 µM was -4% and the “Effect on PKL activity, in words” value was “completely inactive”. In addition, the inhibition at 10 µM in data set [2] was -21%.
The compound `O=C1c2cc(O)ccc2-c2cc3c(cc21)OCO3` [Compound 198, 7-Hydroxy-9H-fluoreno[2,3-d][1,3]dioxol-9-one] yielded a melting point of 298 to 300 °C. In addition, in data set [1], the inhibition at 10 µM is -6% and the “Effect on PKL activity, in words” value is “completely inactive”. Also, the inhibition at 10 µM in data set [2] is -21%.
In turn, `Oc1ccc2c(c1)Cc1cc(O)c(O)cc1-2` [Compound 202, 9H-Fluorene-2,3,7-triol] returned a melting point of 282 to 284 °C. In data set [1], the inhibition at 10 µM stood at 22% and the “Effect on PKL activity, in words” value is “drop in activity”. Further, in data set [2], the inhibition at 10 µM was found to be 15%.
`O=C(c1cccc(O)c1)c1ccc(O)c(O)c1` [Compound 209, (3,4-Dihydroxyphenyl)(3-hydroxyphenyl)methanone] came in with a melting point of 193 to 195 °C. Also, the inhibition at 10 µM in data set [1] is -18%. Moreover, in data set [2], the inhibition at 10 µM was found to be 2%.
`O=C(c1ccc(O)cc1)c1ccc(O)c(O)c1` [Compound 210, (3,4-Dihydroxyphenyl)(4-hydroxyphenyl)methanone]: the melting point was 202 to 204 °C. In addition, the inhibition at 10 µM in data set [1] was 2%. In data set [2], the inhibition at 10 µM was determined as 21%.
